# From ChEMBL document CHEMBL6087460, “Generating a Peptide Library Using the Repeats of Amino Acid Scaffolds Created by Sliding the Framework of a 7-mer Human Chemerin Segment and Discovery of Potent Antibacterial and Antimycobacterial Peptides” (J Med Chem, 2025)
# Calls of active or inactive are those of the source. The rule behind the calls is not given here.
# How the values were obtained:
# Escherichia coli [1] = test: Bactericidal activity against Escherichia coli ATCC 25922 at MIC incubated for about 100 mins by time kill assay relative to control; format: functional; conditions: 1.667 h
# Escherichia coli [2] = test: Antibacterial activity against Escherichia coli ATCC 25922 incubated for 16 to 18 hrs in presence of 10 percent human serum by broth dilution assay; format: functional; conditions: time 16-18 hrs
# Escherichia coli [3] = test: Bactericidal activity against Escherichia coli ATCC 25922 incubated for 16 to 18 hrs; format: functional; conditions: time 16-18 hrs
# [4] = Cytotoxicity against mouse 3T3-L1 cells assessed as cell viability at 100 uM incubated for 24 hrs by MTT assay relative to control; format: toxicity, cell-based; conditions: 3T3-L1 cells, read-out: Activity
# Escherichia coli [5] = test: Disruption of plasma membrane integrity in Escherichia coli ATCC 25922 by SYTOX-Green uptake assay; format: functional, organism-based
# Staphylococcus aureus [6] = test: Disruption of plasma membrane integrity in Staphylococcus aureus ATCC 25923 by SYTOX-Green uptake assay; format: functional, organism-based
# Staphylococcus aureus [7] = test: Antibacterial activity against methicillin-resistant Staphylococcus aureus 33591 incubated for 16 to 18 hrs by broth dilution assay; format: functional; conditions: time 16-18 hrs
# [8] = Retention time of compound by RP-HPLC method; format: physicochemical
# [9] = Hemolytic activity in human RBC measured after 40 mins by absorbance based assay; format: toxicity, cell-based, Erythrocyte; conditions: human red blood cells
# [10] = Hemolytic activity in human RBC assessed as disruption of membrane integrity by Alexa Fluor-Annexin V staining based analysis; format: toxicity, cell-based; conditions: erythrocyte
# Klebsiella pneumoniae = test: Antibacterial activity against Klebsiella pneumoniae ATCC 27736 incubated for 16 to 18 hrs by broth dilution assay; format: functional; conditions: time 16-18 hrs
# Staphylococcus aureus [11] = test: Bactericidal activity against Staphylococcus aureus ATCC 25923 incubated for 16 to 18 hrs; format: functional; conditions: time 16-18 hrs
# Pseudomonas aeruginosa = test: Antibacterial activity against Pseudomonas aeruginosa ATCC BAA-427 incubated for 16 to 18 hrs by broth dilution assay; format: functional; conditions: time 16-18 hrs
# Escherichia coli [12] = test: Induction of cell membrane damage in Escherichia coli ATCC 25922 at 3 times MIC incubated for 60 mins by SEM analysis; format: functional, organism-based
# Escherichia coli [13] = test: Disruption of membrane integrity in Escherichia coli ATCC 25922 by PI staining based analysis; format: functional, organism-based
# Staphylococcus aureus [14] = test: Induction of membrane depolarization in Staphylococcus aureus ATCC 25923 by diSC3-5 dye based analysis; format: functional, organism-based
# Staphylococcus aureus [15] = test: Antibacterial activity against Staphylococcus aureus ATCC 25923 incubated for 16 to 18 hrs in presence of 10 percent human serum by broth dilution assay; format: functional; conditions: time 16-18 hrs
# Bacillus subtilis = test: Antibacterial activity against Bacillus subtilis 6633 incubated for 16 to 18 hrs by broth dilution assay; format: functional; conditions: time 16-18 hrs
# Staphylococcus aureus [16] = test: Bactericidal activity against Staphylococcus aureus ATCC 25923 at MIC incubated for about 135 mins by time kill assay relative to control; format: functional; conditions: 2.25 h
# Staphylococcus aureus [17] = test: Antibacterial activity against Staphylococcus aureus ATCC 25923 incubated for 16 to 18 hrs by broth dilution assay; format: functional; conditions: time 16-18 hrs
# Escherichia coli [18] = test: Antibacterial activity against Escherichia coli ATCC 25922 incubated for 16 to 18 hrs by broth dilution assay; format: functional; conditions: time 16-18 hrs
# Staphylococcus aureus [19] = test: Antibacterial activity against methicillin-resistant Staphylococcus aureus BAA-44 incubated for 16 to 18 hrs by broth dilution assay; format: functional; conditions: time 16-18 hrs
# Staphylococcus aureus [20] = test: Induction of cell membrane damage in Staphylococcus aureus ATCC 25923 at 3 times MIC incubated for 60 mins by SEM analysis; format: functional, organism-based
# Staphylococcus aureus [21] = test: Disruption of membrane integrity in Staphylococcus aureus ATCC 25923 by PI staining based analysis; format: functional, organism-based
# Escherichia coli [22] = test: Induction of membrane depolarization in Escherichia coli ATCC 25922 by diSC3-5 dye based analysis; format: functional, organism-based
# [23] = system: Mycolicibacterium smegmatis; test: Antitubercular activity against Mycobacterium smegmatis incubated for 24 hrs by rezasurin dye based assay; format: functional
# [24] = Cytotoxicity against rat L6 cells assessed as cell viability at 100 uM incubated for 24 hrs by MTT assay relative to control; format: toxicity, cell-based; conditions: L6 cells, read-out: Activity
# Staphylococcus aureus [25] = test: Induction of resistance development in methicillin-resistant Staphylococcus aureus BAA-44 assessed as fold increase in MIC at sub-MIC measured after 30 passages relative to control; format: functional
# [26] = Toxicity in BALB/c mouse infected with Mycobacterium bovis BCG assessed as animal survival at 2.5 to 5 mg/kg, iv administered once a day for 2 weeks; format: organism-based; conditions: in vivo, 336 h, dose 2.5-5 mg/kg
# Escherichia coli [27] = test: Induction of resistance development in Escherichia coli ATCC 25922 assessed as fold increase in MIC at sub-MIC measured after 30 passages relative to control; format: functional
# Staphylococcus aureus [28] = test: Bactericidal activity against Staphylococcus aureus ATCC 25923 at MIC incubated for 30 mins by time kill assay; format: functional, organism-based
# Staphylococcus aureus [29] = test: Induction of resistance development in Staphylococcus aureus ATCC 25923 assessed as fold increase in MIC at sub-MIC measured after 30 passages relative to control; format: functional
# Escherichia coli [30] = test: Antibacterial activity against Escherichia coli ATCC 25922 infected in BALB/c mouse assessed as bacterial count in liver at 5 mg/kg, iv administered thrice at 1,3 and 5 hrs post-infection measured after 24 hrs post-last dose (Rvb ~ 2.3 x10^7 CFU/mL); format: functional; conditions: time 29 hrs
# [31] = Stability in 10 percent human serum assessed as compound remaining measured after 60 mins by RP-HPLC analysis; format: ADME, cell-free; conditions: 10% human serum, read-out: Stability
# [32] = Toxicity in BALB/c mouse assessed as change in AST level at 15 mg/kg, iv administered thrice at 2 hrs interval measured after 7 days; format: organism-based; conditions: in vivo, 168 h, time 7 day
# Staphylococcus aureus [33] = test: Bactericidal activity against Staphylococcus aureus ATCC 25923 at MIC incubated for 45 mins by time kill assay; format: functional, organism-based
# Escherichia coli [34] = test: Bactericidal activity against Escherichia coli ATCC 25922 at MIC incubated for 30 mins by time kill assay; format: functional, organism-based
# Escherichia coli [35] = test: Antibacterial activity against Escherichia coli ATCC 25922 infected in BALB/c mouse assessed as bacterial count in blood at 5 mg/kg, iv administered thrice at 1,3 and 5 hrs post-infection measured after 24 hrs post-last dose (Rvb ~ 9.6 x10^6 CFU/mL); format: functional; conditions: time 29 hrs
# Escherichia coli [36] = test: Antibacterial activity against Escherichia coli ATCC 25922 infected in BALB/c mouse assessed as bacterial count in kidney at 5 mg/kg, iv administered thrice at 1,3 and 5 hrs post-infection measured after 24 hrs post-last dose (Rvb ~ 1.8 x10^7 CFU/mL); format: functional; conditions: time 29 hrs
# [37] = system: Mycolicibacterium smegmatis; test: Antimycobacterial activity against Mycobacterium smegmatis assessed as reduction in bacterial growth at 2 times MIC pretreated for 1 hr followed by compound removal and subsequent culturing in fresh media without compound for 24 hrs measured after 4 days; format: functional, organism-based
# Escherichia coli [38] = test: Bactericidal activity against Escherichia coli ATCC 25922 at MIC incubated for 45 mins by time kill assay; format: functional, organism-based
# [39] = system: Mycolicibacterium smegmatis; test: Disruption of cell membrane integrity in Mycobacterium smegmatis incubated for 2 hrs by EtBr uptake assay; format: functional, organism-based
# [40] = Toxicity in mouse assessed as change in serum AST level at 15 mg/kg, iv administered each day for 5 days measured after 7 days post-last dose; format: organism-based; conditions: in vivo, 120 h, time 5 day
# [41] = Toxicity in BALB/c mouse infected with Escherichia coli ATCC 25922 assessed as animal survival at 5 mg/kg, iv administered thrice at 1,3 and 5 hrs post-infection measured after 7 days; format: organism-based; conditions: in vivo, 168 h, time 7 day
# [42] = Toxicity in BALB/c mouse assessed as animal survival at 15 mg/kg, iv administered thrice at 2 hrs interval measured after 7 days; format: organism-based; conditions: in vivo, 168 h, time 7 day
# [43] = Toxicity in mouse assessed as animal survival at 15 mg/kg, iv administered each day for 5 days measured after 7 days post-last dose; format: organism-based; conditions: in vivo, 120 h, time 5 day
# Staphylococcus aureus [44] = test: Induction of resistance development in methicillin-resistant Staphylococcus aureus 33591 assessed as fold increase in MIC at sub-MIC measured after 30 passages relative to control; format: functional
# [45] = Toxicity in mouse assessed as change in serum ALT level at 15 mg/kg, iv administered each day for 5 days measured after 7 days post-last dose; format: organism-based; conditions: in vivo, 120 h, time 5 day
# [46] = Toxicity in BALB/c mouse infected with Escherichia coli ATCC 25922 assessed as animal survival at 2.5 mg/kg, iv administered thrice at 1,3 and 5 hrs post-infection measured after 7 days; format: organism-based; conditions: in vivo, 168 h, time 7 day
# [47] = Toxicity in BALB/c mouse assessed as change in ALT level at 15 mg/kg, iv administered thrice at 2 hrs interval measured after 7 days; format: organism-based; conditions: in vivo, 168 h, time 7 day
# Escherichia coli [48] = test: Antibacterial activity against Escherichia coli ATCC 25922 infected in BALB/c mouse assessed as bacterial count in spleen at 5 mg/kg, iv administered thrice at 1,3 and 5 hrs post-infection measured after 24 hrs post-last dose (Rvb ~ 1.9 x10^7 CFU/mL); format: functional; conditions: time 29 hrs
# Escherichia coli [49] = test: Antibacterial activity against Escherichia coli ATCC 25922 infected in BALB/c mouse assessed as bacterial load in blood at 5 mg/kg, iv administered thrice at 1,3 and 5 hrs post-infection measured after 24 hrs post-last dose (Rvb ~ 4 x10^6 CFU/mL); format: functional; conditions: time 29 hrs
substance,measurement,setting,value
H-GRLGRLGRLGRLGRL-OH,Activity,Escherichia coli [1],100%
same,MIC,Escherichia coli [2],15.2 µM
same,MBC,Escherichia coli [3],15.2 µM
same,"viability at 24 h, 100 µM",[4],> 80%
same,Activity,Escherichia coli [5],inactive
same,Activity,Staphylococcus aureus [6],inactive
same,MIC,Staphylococcus aureus [7],15.2 µM
same,Retention_time,[8],16.17 min
same,HC50 at 40 min,[9],2 mM
same,Activity,[10],Non-toxic
same,MIC,Klebsiella pneumoniae,60.6 µM
same,MBC,Staphylococcus aureus [11],7.6 µM
same,MIC,Pseudomonas aeruginosa,15.2 µM
same,Activity,Escherichia coli [12],inactive
same,Activity,Escherichia coli [13],inactive
same,Activity,Staphylococcus aureus [14],inactive
same,MIC,Staphylococcus aureus [15],15.2 µM
same,MIC,Bacillus subtilis,15.2 µM
same,Activity,Staphylococcus aureus [16],100%
same,MIC,Staphylococcus aureus [17],3.8 µM
same,MIC,Escherichia coli [18],3.8 µM
same,MIC,Staphylococcus aureus [19],15.2 µM
same,Activity,Staphylococcus aureus [20],inactive
same,Activity,Staphylococcus aureus [21],inactive
same,Activity,Escherichia coli [22],inactive
same,MIC,[23],5 µM
same,"viability at 24 h, 100 µM",[24],> 80%
H-GRLVGRLVGRLVGRLV-OH,MIC,Escherichia coli [2],1.8 µM
same,fold change (FC),Staphylococcus aureus [25],2
same,MBC,Escherichia coli [3],1.8 µM
same,Activity,[26],Non-toxic
same,"viability at 24 h, 100 µM",[4],75%
same,Activity,Escherichia coli [5],Active
same,fold change (FC),Escherichia coli [27],2
same,Activity,Staphylococcus aureus [6],Active
same,MIC,Staphylococcus aureus [7],1.8 µM
same,Activity,Staphylococcus aureus [28],Active; Emerged As Swiftest Molecule
same,fold change (FC),Staphylococcus aureus [29],2
same,Retention_time,[8],20.24 min
same,Activity,Escherichia coli [30],1864 CFU/ml
same,remaining at 1 h,[31],~80%
same,HC50 at 40 min,[9],2 mM
same,Activity,[10],Non-toxic
same,Activity,[32],Non-toxic
same,Activity,Staphylococcus aureus [33],Active
same,MIC,Klebsiella pneumoniae,3.6 µM
same,Activity,Escherichia coli [34],Active; Emerged As Swiftest Molecule
same,MBC,Staphylococcus aureus [11],1.8 µM
same,Activity,Escherichia coli [35],1020 CFU/ml
same,MIC,Pseudomonas aeruginosa,7.3 µM
same,Activity,Escherichia coli [36],2908 CFU/ml
same,Activity,[37],Active
same,Activity,Escherichia coli [12],Active
same,Activity,Escherichia coli [13],Active
same,Activity,Escherichia coli [38],Active
same,Activity,Staphylococcus aureus [14],Active
same,MIC,Staphylococcus aureus [15],1.8 µM
same,Activity,[39],inactive
same,Activity,[40],Non-toxic
same,Survival,[41],100%
same,MIC,Bacillus subtilis,1.8 µM
same,Activity,[42],Non-toxic
same,Activity,[43],Non-toxic
same,fold change (FC),Staphylococcus aureus [44],2
same,MIC,Staphylococcus aureus [17],1.8 µM
same,Activity,[45],Non-toxic
same,Survival,[46],60%
same,Activity,[47],Non-toxic
same,MIC,Escherichia coli [18],1.8 µM
same,MIC,Staphylococcus aureus [19],3.6 µM
same,Activity,Staphylococcus aureus [20],Active
same,Activity,Escherichia coli [48],1652 CFU/ml
same,Activity,Escherichia coli [49],~800 CFU/ml
same,Activity,Staphylococcus aureus [21],Active
same,Activity,Escherichia coli [22],Active
same,MIC,[23],2.5 µM
same,"viability at 24 h, 100 µM",[24],75%
